The values that follow come from patent publication US7807867B2, “Gene encoding protein involved in cytokinin synthesis” (Suntory Holdings Limited, priority 2001, dated 2010).

One data set addresses T1, AtIPT4 (Arabidopsis thaliana, UniProt Q9SB60).
T1 construct: made in house
T1 sequence (Q9SB60 1-318): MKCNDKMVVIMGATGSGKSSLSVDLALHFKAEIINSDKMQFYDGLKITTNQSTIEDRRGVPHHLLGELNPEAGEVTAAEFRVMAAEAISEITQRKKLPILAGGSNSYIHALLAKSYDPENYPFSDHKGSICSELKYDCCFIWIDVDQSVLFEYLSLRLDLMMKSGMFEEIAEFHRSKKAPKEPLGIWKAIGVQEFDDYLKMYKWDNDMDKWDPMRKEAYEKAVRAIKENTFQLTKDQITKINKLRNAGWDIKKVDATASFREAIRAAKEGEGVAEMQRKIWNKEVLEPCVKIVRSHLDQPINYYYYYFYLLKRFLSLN
Description: Enzyme activity of purified AtIPT4 protein (dimethylallyl transfer, Km). The settings on record: for transfer of the dimethylallyl group of DMAPP to the substrate: 3H-labeled substrate at 0.25 μM, Ni-NTA bound AtIPT4 (Sample D), 30 minutes at 23° C. In kind it is biochemical. Here is the method: This was designated as Sample A. 400 μl of Ni-NTA agarose suspension (containing 110 μl of Ni-NTA agarose as precipitate, 30 mM NaH2PO4 (pH 8), […], 0.9 M NaCl, 7.5 mM β-mercaptoethanol, 0.5 mM PMSF and 30 μg/ml of leupeptin) were added to 800 μl of Sample A. This suspension was designated as Sample B. Sample B was then centrifuged to separate into supernatant (Sample C) and precipitate. Washing liquid (consisting of 20 mM NaH2PO4 (pH 8), […], 0.3 M NaCl, 5 mM β-mercaptoethanol, 0.5 mM PMSF and 10 μg/ml of leupeptin) was added to the precipitate, and the Ni-NTA agarose was washed four times using a procedure in which the precipitate was recovered by centrifugation. […] After adding 700 μl of ethyl acetate to this reaction liquid followed by stirring and centrifuging, 550 μl of the ethyl acetate layer were recovered followed by the addition of 500 μl of distilled water. After stirring and centrifugal separation, 350 μl of the ethyl acetate layer were recovered followed again by the addition of 500 μl of distilled water. After again stirring and separating by centrifugation, 0.5 ml of ACSII (Pharmacia) were added to 50 μl of the ethyl acetate layer followed by measurement of radioactivity with a liquid scintillation counter.

The target of a further data set is T2, AtIPT1 (Arabidopsis thaliana, UniProt Q94ID3).
T2 construct: made in house
T2 sequence (Q94ID3 72-357): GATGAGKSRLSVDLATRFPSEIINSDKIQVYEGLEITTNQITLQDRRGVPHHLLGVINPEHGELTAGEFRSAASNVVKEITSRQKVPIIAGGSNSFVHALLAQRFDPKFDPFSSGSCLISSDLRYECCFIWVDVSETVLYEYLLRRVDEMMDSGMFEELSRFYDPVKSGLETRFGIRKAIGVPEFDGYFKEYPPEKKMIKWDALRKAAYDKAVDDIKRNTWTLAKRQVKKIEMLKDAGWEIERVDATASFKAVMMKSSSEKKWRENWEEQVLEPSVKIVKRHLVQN
Description: Enzyme activity of AtIPT1 protein (dimethylallyl transfer). It is filed as biochemical.

Another data set concerns the target tzs (Agrobacterium fabrum, UniProt P58758). The settings on record: read-out: Km of tzs for AMP; cited from earlier work.
Substrate in data set [1]: CC(C)=CCOP(=O)(O)OP(=O)(O)O
Description: purified protein, by the assay type. The settings on record: other: in the presence of 200 μM ATP; purified recombinant AtIPT4 protein; 23.0 °C.

Chain of tzs (P58758 whole entry): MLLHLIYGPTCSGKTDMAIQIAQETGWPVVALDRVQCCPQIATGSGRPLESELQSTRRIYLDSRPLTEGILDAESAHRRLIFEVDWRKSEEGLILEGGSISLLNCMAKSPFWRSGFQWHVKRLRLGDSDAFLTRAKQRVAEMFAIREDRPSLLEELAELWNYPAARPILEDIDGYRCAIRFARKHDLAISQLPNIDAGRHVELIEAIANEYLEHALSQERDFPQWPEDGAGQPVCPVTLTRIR

As for `Nc1ncnc2c1ncn2[C@@H]1O[C@H](COP(=O)(O)OP(=O)(O)O)[C@@H](O)[C@H]1O` [ADP], at AtIPT4, the “transfer of the dimethylallyl group of DMAPP to the substrate” value was “efficiently transferred”. For the same molecule, on AtIPT1, the “transfer of a dimethylallyl group to the substrate” value is on record as “activity that transfers a dimethylallyl group”. For orientation: Km means the concentration of substrate that gives half-maximal velocity. As to `Nc1ncnc2c1ncn2[C@@H]1O[C@H](COP(=O)(O)O)[C@@H](O)[C@H]1O` [AMP, adenosine monophosphate], at tzs, the Km is 11.1 µM. On to `Nc1ncnc2c1ncn2[C@@H]1O[C@H](COP(=O)(O)OP(=O)(O)OP(=O)(O)O)[C@@H](O)[C@H]1O` [ATP], for which the “transfer of the dimethylallyl group of DMAPP to the substrate” value at AtIPT4 is “efficiently transferred”. The Km on AtIPT4 (in the presence of 0.4 mM DMAPP, purified recombinant AtIPT4 protein (2 ng/ml), read-out: Km for ATP) is around 11.1 µM. For the same molecule, the “transfer of a dimethylallyl group to the substrate” value on AtIPT1 was “activity that transfers a dimethylallyl group”.

B1: AtIPT4 (Arabidopsis thaliana) (protein)
chain: T1 sequence (Q9SB60 1-318)
B1: the Km in data set [1] turned out to be 6.5 µM.
